What was measured:
[1] = system: vascular smooth muscle cells; test: Fura-2 [Ca2+]i signal response to angiotensin II in smooth muscle cells cultured from trilostane treated rats; format: cell-based, rat; design: key: + = calcium response; − = no response; details: cells (TTSMC) from rats given trilostane 4 mg/kg per day for 5 days
Description: Male Wistar rats (˜500 g) were treated with 0.1 ml ethanol in cotton seed oil with trilostane 4 mg/kg per day for 5 days. Control animals received the vehicle alone. Animals were then treated with 0.1 ml (500 u) heparin IP, before killing by stunning and cervical dislocation. Blood was collected from neck vessels, centrifuged to obtain plasma which was stored at −20° C. until required for steroid analysis. Corticosterone and aldosterone concentrations were assayed using commercially available kits (Diagnostic Systems Laboratories Inc., Webster, Tex., USA). Circulating concentrations of corticosterone (FIG. 3 (a)) and aldosterone (FIG. 3(b)) are shown for control animals and animals receiving trilostane treatment. […] Primary cultures were established of RASMC obtained from trilostane treated and control animals, using the established methods. For [Ca^2+]i measurement, the cells were loaded with 1 μM fura-2 for 30 min in medium-modified Krebs-Ringer bicarbonate solution (3.6 mM K^+, 1.2 mM Ca^2+, 0.5 mM Mg^2+, 5 mM Hepes and 20 mM HCO^−) at 37° C. For simultaneous measurements of measuring the fluorescence of fura-2, the cells plated on coverslips were mounted on the stage of an inverted microscope (Zeiss) in a modified Krebs-Ringer bicarbonate solution. The excitation wavelengths were 340 and 380 nm, and emission was detected at 510 nm. [Ca^2+]i was calculated from the ratio of fluorescence intensities at excitation wavelengths of 340 and 380 nm. Fields of cells, ˜10 cells per field, were tested from control and trilostane treated animals. The results are shown in Table 3 and FIGS. (c) and (d) wherein the arrow indicates the time of application of angiotensin II. Characteristic calcium signals obtained by stimulation of vascular smooth muscle cells from control animals (FIG. 3(c)) and trilostane treated animals (FIG. 3(d)) by 10 nmol/L angiotensin II.

[2] = system: rat aortic smooth muscle cells (RASMC); test: Cell count for rat aortic smooth muscle cells stimulated with Ang II; format: cell-based; details: 48 hours; for Cell Count: 20% FBS RPMI-1640, control 12.00 × 10^4, Ang II alone 21.30 × 10^4; for Effect on Ang II stimulated increase in cell number: Ang II 10^−7 M
Description: (§1) Aortic smooth muscle cells (ASMCs) were isolated from rat thoracic and abdominal artery (RASMC) and bovine aorta (BASMC) by the media explant method and cultured over several passages.
(§2) Segments of both abdominal and thoracic aortas were obtained from rats by careful dissection from killed rats. Segments of aorta were obtained from calves under anaesthesia. The segments of aorta were placed in a depression slide containing tissue culture medium, after which the adventitia and the outer portion of each segment was carefully removed under a dissecting microscope. The remaining inner portion of the tissue and the intima were removed to a separate dissecting dish and washed several times with fresh culture medium. At this point each segment was cut into approximately 1 mm squares and placed on 25 cm^2 tissue culture flask. The flasks were loosely capped and placed in a humidified CO2 incubator After two hours, 4 ml of RPMI-1640 culture medium supplemented with 100 units/ml of penicillin, […] streptomycin, […] L-glutamine and 20% […] was carefully added to the flasks without dislodging the tissue. Samples were fed with fresh medium after one week. The cells from the explants were relatively confluent within a period of approximately 2 weeks. They were then rinsed with PBS, and subsequently trypsinized with a solution of 0.125% trypsin and 0.02% EDTA in PBS for 1-2 min al 37° C. The resulting suspension of cells was pipetted into 75 cm^2 tissue culture flasks containing 10 ml culture medium and incubated as above.
(§3) Experiments were performed with cells from passages 3 to 5.
Cell count for rat aortic smooth muscle cells (RASMC). RASMC (0.5×10^5/ml/well) were incubated with 20% FBS RPMI-1640 medium containing Ang II (10^−7 M) with or without different concentrations of trilostane for 48 hours.

[3] = system: circulating adrenal steroids; details: patients with normally functioning adrenals; cited from earlier work
[4] = system: rat aortic smooth muscle cells (RASMC); test: 3H-methylthymidine incorporation into rat aortic smooth muscle cells stimulated with Ang II; format: cell-based; details: for Tritiated thymidine uptake / Effect on tritium incorporation induced by Ang II: 48 hours; for Tritiated thymidine uptake: serum-free medium, control 57.6, Ang II alone 87.1; for Effect on tritium incorporation induced by Ang II: Ang II 10^−7 M
Description: as §1, §2, §3
^3H-methylthymidine incorporation into rat aortic smooth muscle cells (RASMC). Quiescent RASMC (0.3×10^5/ml/well) were incubated with serum-free medium (SFM) containing Ang II (10^−7 M) with or without different concentrations of trilostane for 48 hours. The results are shown in Table 1. ^3H-methylthymidine incorporation into RASMC was increased in the Ang II treated group.
Using the same tritiated thymidine uptake methodology as for Example 1, the actions of Losartan on angiotensin II-stimulated cell proliferation were tested in the presence and absence of trilostane.

[5] = system: circulating adrenal steroids; test: Circulating plasma adrenal steroids in whole, healthy rats (radioimmunoassay, FIG. 1); format: in vivo, rat
Description: Trilostane has been used in treatments that are aimed at suppressing adrenal steroid secretion. Examples of adrenal steroids include cortisol, aldosterone and corticosterone. In practice, in patients with normally functioning adrenals, circulating adrenal steroids are reduced only at high trilostane dosage levels upwards of 8 to 10 mg/kg/day equivalent, and this is the regime most frequently used (Beardwell et al. 1985, Clin Endocrinol (Oxf), 23, 413-21, Engelhardt and Weber 1994, J Steroid Biochem Mol Biol, 40, 261-7). […] This can be shown by testing the levels of circulating adrenal steroids pre- and post-treatment and assessing whether or not the concentrations of adrenal steroids have been reduced. The levels of circulating adrenal steroids in the plasma can be tested by collecting circulating blood from a vein. Plasma is obtained by centrifugation and plasma steroid (for example, cortisol and aldesterone for humans, corticosterone and aldosterone in rats) is assayed using a conventional radioimmunoassay. Suitable corticosterone radioammunoassay kits are available from Amersham Biosciences UK Limited. Suitable aldosterone radioimmunoassay kits are available from Diagnostic Products Corporation.

[6] = system: AT1 receptor mRNA; test: AT1 receptor mRNA expression by RT-PCR and real-time quantitative RT-PCR in RASMC (FIG. 4); format: cell-based, rat; details: 48 hours, trilostane added to angiotensin II, FIG. 4, P<0.01
Description: […] Real-time RT-PCR was performed using Brilliant SYBR Green QRT-PCR Master Mix Kit, 1-step based on real-time detection of accumulated fluorescence (M×300P, Stratagene, Amsterdam). Results are means, SEM too small to show. **=P<0.01.

[7] = system: circulating adrenal steroids; test: Circulating corticosterone and aldosterone in male Wistar rats after 5 days of trilostane (FIG. 3a, b); format: in vivo, rat; details: trilostane 4 mg/kg per day for 5 days, versus vehicle control
Description: Male Wistar rats (˜500 g) were treated with 0.1 ml ethanol in cotton seed oil with trilostane 4 mg/kg per day for 5 days. Control animals received the vehicle alone. Animals were then treated with 0.1 ml (500 u) heparin IP, before killing by stunning and cervical dislocation. Blood was collected from neck vessels, centrifuged to obtain plasma which was stored at −20° C. until required for steroid analysis. Corticosterone and aldosterone concentrations were assayed using commercially available kits (Diagnostic Systems Laboratories Inc., Webster, Tex., USA). Circulating concentrations of corticosterone (FIG. 3 (a)) and aldosterone (FIG. 3(b)) are shown for control animals and animals receiving trilostane treatment.

[8] = system: severe congestive heart failure (CHF); details: patients with severe congestive heart failure, given in addition to ACE inhibitors; cited from earlier work
[9] = system: myocardial injury; details: rat model, angiotensin-induced injury, treatment with eplerenone; cited from earlier work
[10] = system: LV dysfunction and remodeling; details: dogs with chronic heart failure, 3 months of treatment, cited from earlier work
[11] = Ang II 10^−7 M + trilostane 10^−5 M
[12] = Ang II 10^−7 M + trilostane 10^−6 M
[13] = Ang II 10^−7 M + trilostane 10^−7 M
[14] = Ang II 10^−7 M + trilostane 10^−8 M
[15] = Ang II 10^−7 M + trilostane 10^−9 M
[16] = trilostane at 10^−6 and 10^−5 M
[17] = trilostane at 10^−9, 10^−8 and 10^−7 M

Compound: C[C@]12CC[C@H]3[C@@H](CC[C@@]45O[C@@H]4C(O)=C(C#N)C[C@]35C)[C@@H]1CC[C@@H]2O [trilostane, (4α,5α-17β)-4,5-epoxy-3,17-dihydroxyandrost-2-ene-2carbonitrile]
- Calcium signal response to angiotensin II ([1]; Ang II 10^−6 M): +
- Calcium signal response to angiotensin II ([1]; Ang II 10^−7 M): −
- Calcium signal response to angiotensin II ([1]; Ang II 10^−8 M, control cells (NSMC) +): −
- Calcium signal response to angiotensin II ([1]; Ang II 10^−9 M, control cells (NSMC) −): −
- Calcium signal response to angiotensin II ([1]; Ang II 10^−10 M, control cells (NSMC) −): −
- Calcium signal response to angiotensin II ([1]; Ang II 10^−11 M, control cells (NSMC) −): −
- Cell Count [2, 11]: 14.25 × 10^4
- Cell Count [2, 12]: 14.00 × 10^4
- Cell Count [2, 13]: 20.00 × 10^4
- Cell Count [2, 14]: 21.95 × 10^4
- Cell Count [2, 15]: 21.00 × 10^4
- Effect on Ang II stimulated increase in cell number [2, 16]: inhibited
- Effect on Ang II stimulated increase in cell number [2, 17]: not at 10^−9, 10^−8 and 10^−7 M
- Dosage level at which circulating adrenal steroids are reduced [3]: 8 to 10 mg/kg/day
- Tritiated thymidine uptake [4, 11]: 42.7 dpm
- Tritiated thymidine uptake [4, 12]: 74.9 dpm
- Tritiated thymidine uptake [4, 13]: 89.1 dpm
- Tritiated thymidine uptake [4, 14]: 101.88 dpm
- Tritiated thymidine uptake [4, 15]: 96.7 dpm
- Cell proliferation (tritiated thymidine uptake) ([4]; trilostane additionally present with Losartan, FIG. 2, P<0.05 / P<0.01): decreased cell proliferation still further to less than control values
- Effect on tritium incorporation induced by Ang II [4, 16]: inhibited
- Effect on tritium incorporation induced by Ang II [4, 17]: not at 10^−9, 10^−8 and 10^−7 M
- Circulating corticosterone levels ([5]; rats, trilostane 4 mg/kg/day or 8 mg/kg/day): Neither dose (4 mg/kg/day or 8 mg/kg/day) affects circulating corticosterone levels
- Concentrations of aldosterone in circulating plasma ([5]; rats, trilostane 4 mg/kg/day, FIG. 1b): does not reduce concentrations of aldosterone in circulating plasma
- Concentrations of aldosterone in circulating plasma ([5]; whole, healthy rats, trilostane 8 mg/kg/day, FIG. 1a): reduces concentrations of aldosterone in circulating plasma
- mRNA transcription of the gene coding for the angiotensin II type 1 receptor (AT1) [6]: reduced even further
- Circulating concentrations of corticosterone ([7]; FIG. 3(a)): no significant differences
- Circulating concentrations of aldosterone ([7]; FIG. 3(b)): no significant differences

Compound: CCCCc1nc(Cl)c(CO)n1Cc1ccc(-c2ccccc2-c2nn[nH]n2)cc1 [Losartan]
- Action on angiotensin II-stimulated cell proliferation (tritiated thymidine uptake) ([4]; Losartan with angiotensin II, absence of trilostane, FIG. 2): significantly eliminated the stimulatory action of angiotensin II
- Cell proliferation (tritiated thymidine uptake) compared with controls ([4]; losartan alone group, FIG. 2): not different from controls

Compound: CC(=O)S[C@@H]1CC2=CC(=O)CC[C@]2(C)[C@H]2CC[C@@]3(C)[C@@H](CC[C@@]34CCC(=O)O4)[C@H]12 [spironolactone]
- Mortality [8]: significantly reduced mortality

Compound: COC(=O)[C@@H]1CC2=CC(=O)CC[C@]2(C)[C@@]23O[C@@H]2C[C@@]2(C)[C@@H](CC[C@@]24CCC(=O)O4)[C@H]13 [eplerenone]
- COX-2 expression in the media of coronary arteries [9]: markedly attenuated
- Myocardial injury [9]: markedly attenuated
- Osteopontin expression in the media of coronary arteries [9]: markedly attenuated
- Reduction in cardiomyocyte cross-sectional area ([10]; compared with control): 28%
- Reduction of volume fraction of reactive interstitial fibrosis ([10]; compared with control): 37%
- Reduction of volume fraction of replacement fibrosis ([10]; compared with control): 34%
- LV end-diastolic wall stress ([10]; increased significantly in control dogs): decreased significantly
- End-diastolic volume, end-systolic volume, and EF ([10]; volumes increased significantly in control dogs): remained unchanged

Reference: patent US20070142341A1, “Use of steroid derivatives for the treatment of angiotensin ll related disease e.g. cardiovascular and proliferative disorders” (priority 2003, published 2007)
